The assay has as its target T1, human PDE2A1 (Homo sapiens, UniProt O00408).
T1 construct: GST; purchased BPS Bioscience (San Diego, Calif.) 60020; host or cells: insect cells
Nature of the assay: IMAP FP PDE assay, human PDE2A1. The assay is classed as biochemical. The procedure, abridged:
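GST-tagged human PDE2A1 from insect cells; substrate 50 nM FAM-cAMP containing 1000 nM cGMP in Tris pH 7.2/MgCl2/DTT buffer, enzyme giving 20% conversion. 60 min at room temperature, IMAP binding reagent, fluorescence polarization read. Apparent Ki from FP readings using apparent KM 10,000 nM; ten-point 3-fold titrations.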

Setting [1] is: Lab B, read-out: Human PDE2 Ki (nM) Lab B.
Where [2] appears, read: Lab A, read-out: Human PDE2 Ki (nM) Lab A.

Where two headings read alike, the source gives them in different places.

A word on the Ki: it is the equilibrium dissociation constant of an inhibitor or competing ligand from its target.

T1 sequence (O00408 1-920 isoform O00408-2): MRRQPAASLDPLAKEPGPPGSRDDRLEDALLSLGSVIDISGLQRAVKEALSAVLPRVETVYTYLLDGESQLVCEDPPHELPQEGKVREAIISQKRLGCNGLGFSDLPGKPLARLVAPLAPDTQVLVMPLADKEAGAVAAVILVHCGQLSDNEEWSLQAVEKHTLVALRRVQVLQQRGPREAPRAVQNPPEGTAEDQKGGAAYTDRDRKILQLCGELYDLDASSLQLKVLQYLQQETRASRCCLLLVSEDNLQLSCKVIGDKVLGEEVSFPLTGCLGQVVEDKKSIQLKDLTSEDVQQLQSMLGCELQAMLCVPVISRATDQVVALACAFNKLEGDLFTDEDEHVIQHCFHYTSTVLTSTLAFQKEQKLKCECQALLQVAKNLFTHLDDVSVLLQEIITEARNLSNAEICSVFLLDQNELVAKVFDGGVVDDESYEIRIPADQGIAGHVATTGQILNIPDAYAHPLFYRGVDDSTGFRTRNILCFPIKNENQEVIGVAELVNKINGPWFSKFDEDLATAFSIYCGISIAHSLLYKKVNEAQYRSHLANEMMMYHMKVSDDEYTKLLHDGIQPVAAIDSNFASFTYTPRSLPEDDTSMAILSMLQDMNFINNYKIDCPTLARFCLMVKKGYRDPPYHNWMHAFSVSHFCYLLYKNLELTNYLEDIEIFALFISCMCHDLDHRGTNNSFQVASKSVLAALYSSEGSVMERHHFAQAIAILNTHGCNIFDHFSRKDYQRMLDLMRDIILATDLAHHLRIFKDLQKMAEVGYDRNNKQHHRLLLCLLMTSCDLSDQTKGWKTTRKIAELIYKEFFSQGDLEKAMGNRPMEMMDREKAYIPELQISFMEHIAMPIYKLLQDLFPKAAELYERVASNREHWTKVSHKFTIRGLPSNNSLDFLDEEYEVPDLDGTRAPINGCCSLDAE

Consider `Cc1nc2c(c(CF)nn2C(C)c2ccc(CC(F)(F)F)cc2)c(=O)[nH]1` (single isomer, unassigned) [Example 211, (S)- or (R)-3-(Fluoromethyl)-6-methyl-1-(1-(4-(2,2,2-trifluoroethyl)phenyl)ethyl)-1H-pyrazolo[3,4-d]pyrimidin-4(5H)-one], for which the Ki under setting [1] is 0.65 nM.

As to `Cc1nc2c(c(C)nn2C(C)c2ccc(C(F)(F)F)cc2)c(=O)[nH]1` (single isomer, unassigned) [Example 37], under setting [2], the Ki was 23 nM.

In the case of `Cc1nn(C(C)c2ccc(C(F)(F)F)cc2)c2nc(CF)[nH]c(=O)c12` (stereo not drawn) [Example 51, 6-(Fluoromethyl)-3-methyl-1-{1-[4-(trifluoromethyl)phenyl]ethyl}-1,5-dihydro-4H-pyrazolo[3,4-d]pyrimidin-4-one], the Ki under setting [2] worked out at 50 nM.

For `COc1cccc(Cc2nc3c(c(C)nn3C(C)c3ccc(C(F)(F)F)cc3)c(=O)[nH]2)c1` (stereo not drawn) [Example 45, 6-(3-Methoxybenzyl)-3-methyl-1-{1-[4-(trifluoromethyl)phenyl]ethyl}-1,5-dihydro-4H-pyrazolo[3,4-d]pyrimidin-4-one], the Ki under setting [2] was 22 nM.

Consider `Cc1nc2c(c(CO)nn2C(C)(C)c2ccc(C(F)(F)F)cc2)c(=O)[nH]1` [Example 9, 3-(Hydroxymethyl)-6-methyl-1-{1-methyl-1-[4-(trifluoromethyl)phenyl]ethyl}-1,5-dihydro-4H-pyrazolo[3,4-d]pyrimidin-4-one], for which the Ki by setting is: under setting [2], 27 nM; under setting [1], 60 nM.

As for `Cc1nc2c(c(CF)nn2C(C)c2ccc(OC(F)(F)F)c(F)c2)c(=O)[nH]1` (single isomer, unassigned) [Example 216, (R)- or (S)-1-(1-(3-Fluoro-4-(trifluoromethoxy)phenyl)ethyl)-3-(fluoromethyl)-6-methyl-1H-pyrazolo[3,4-d]pyrimidin-4(5H)-one], the Ki under setting [1] stood at 36 nM.

In the case of `COCc1nc2c(c(CF)nn2C(C)c2ccc(C(F)(F)F)cc2)c(=O)[nH]1` (stereo not drawn) [Example 205, 3-(Fluoromethyl)-6-(methoxymethyl)-1-{1-[4-(trifluoromethyl)phenyl]ethyl}-1,5-dihydro-4H-pyrazolo[3,4-d]pyrimidin-4-one], the Ki under setting [1] was 3.4 nM.

Take `Cc1nn(C(C)c2ccc(C(F)(F)F)cc2)c2nc(-c3cnn(C)c3)[nH]c(=O)c12` (stereo not drawn) [Example 53, 3-Methyl-6-(1-methyl-1H-pyrazol-4-yl)-1-{1-[4-(trifluoromethyl)phenyl]ethyl}-1,5-dihydro-4H-pyrazolo[3,4-d]pyrimidin-4-one]: the Ki under setting [2] worked out at 17 nM.

As to `CCC(c1ccc(C(F)(F)F)cc1)n1nc(CO)c2c(=O)[nH]c(C)nc21` (single isomer, unassigned) [Example 132, (R)- or (S)-3-(Hydroxymethyl)-6-methyl-1-(1-(4-(trifluoro-methyl)phenyl)propyl)-1H-pyrazolo[3,4-d]pyrimidin-4(5H)-one], under setting [1], the Ki worked out at 1.1 nM.

For the molecule `Cc1nc2c(c(CO)nn2[C@@H](C)c2ccc(OC(F)(F)F)cc2)c(=O)[nH]1` [Example 158, (S)-3-(Hydroxymethyl)-6-methyl-1-(1-(4-(trifluoromethoxy)phenyl)ethyl)-1H-pyrazolo[3,4-d]pyrimidin-4(5H)-one], the Ki under setting [1] is 3.1 nM.

`Cc1nc2c(c(CO)nn2C(c2ccc(C(F)(F)F)cc2)C(C)C)c(=O)[nH]1` (stereo not drawn) [Example 5, 3-(Hydroxymethyl)-6-methyl-1-(2-methyl-1-(4-(trifluoromethyl)phenyl)propyl)-1H-pyrazolo[3,4-d]pyrimidin-4(5H)-one]: the Ki worked out at 0.56 nM under setting [2] and 0.74 nM under setting [1].

As to `Cc1nc2c(c(C(F)F)nn2C(C)c2ccc(C(F)(F)F)cc2)c(=O)[nH]1` (single isomer, unassigned) [Example 176], the Ki under setting [1] is 1.3 nM.

For the molecule `COc1ccc(Cc2nc3c(c(C(F)F)nn3C(C)c3ccc(C(F)(F)F)cc3)c(=O)[nH]2)cc1OC` (single isomer, unassigned) [Example 197], the Ki under setting [1] was found to be 0.23 nM.

With `Cc1nc2c(c(CO)nn2C(C)c2ccc(C(F)(F)F)cc2)c(=O)[nH]1` (stereo not drawn) [Example 7, 3-(Hydroxymethyl)-6-methyl-1-(1-(4-(trifluoromethyl)phenyl)ethyl)-1H-pyrazolo[3,4-d]pyrimidin-4(5H)-one], the Ki under setting [2] turned out to be 11 nM and the Ki under setting [1] stood at 17 nM.

Take `Cc1nc2c(c(CO)nn2C(c2ccc(OC(F)(F)F)cc2)C2CC2)c(=O)[nH]1` (single isomer, unassigned) [Example 94, (R)- or (S)-1-(Cyclopropyl(4-(trifluoromethoxy)phenyl)methyl)-3-(hydroxymethyl)-6-methyl-1H-pyrazolo[3,4-d]pyrimidin-4(5H)-one]: under setting [1], the Ki turned out to be 18 nM.

In the case of `Cc1nc2c(c(CCl)nn2C(c2ccc(C(F)(F)F)cc2)C2CC2)c(=O)[nH]1` (stereo not drawn) [Example 232, 3-(chloromethyl)-1-(cyclopropyl(4-(trifluoromethyl)phenyl)methyl)-6-methyl-1H-pyrazolo[3,4-d]pyrimidin-4(5H)-one], the Ki came to 0.27 nM under setting [2] and 0.7 nM under setting [1].

As to `Cc1nc2c(c(C)nn2C(C)c2ccc(C(F)(F)F)cc2)c(=O)[nH]1` (single isomer, unassigned) [Example 36], under setting [2], the Ki came to 428 nM.

For `Cc1nc2c(c(CO)nn2C(C)c2ccc(C(F)(F)F)c(F)c2)c(=O)[nH]1` (stereo not drawn) [Example 1, 1-(1-(3-Fluoro-4-(trifluoromethyl)phenyl)ethyl)-3-(hydroxymethyl)-6-methyl-1H-pyrazolo[3,4-d]pyrimidin-4(5H)-one], the Ki by setting is: under setting [2], 1.8 nM; under setting [1], 5.3 nM.

As for `Cc1nn(C(C)c2ccc(C(F)(F)F)cc2)c2nc(-c3cnc4ccccc4n3)[nH]c(=O)c12` (stereo not drawn) [Example 50, 3-Methyl-6-quinoxalin-2-yl-1-{1-[4-(trifluoromethyl)phenyl]ethyl}-1,5-dihydro-4H-pyrazolo[3,4-d]pyrimidin-4-one], under setting [2], the Ki was 47 nM.

In the case of `COCc1nc2c(c(C)nn2C(C)c2ccc(C(F)(F)F)cc2)c(=O)[nH]1` (stereo not drawn) [Example 48, 6-(Methoxymethyl)-3-methyl-1-{1-[4-(trifluoromethyl)phenyl]ethyl}-1,5-dihydro-4H-pyrazolo[3,4-d]pyrimidin-4-one], the Ki under setting [2] came out at 21 nM.

`Cc1nn(C(C)c2ccc(C(F)(F)F)cc2)c2nc(-c3ccco3)[nH]c(=O)c12` (stereo not drawn) [Example 49, 6-Furan-2-yl-3-methyl-1-{1-[4-(trifluoromethyl)phenyl]ethyl}-1,5-dihydro-4H-pyrazolo[3,4-d]pyrimidin-4-one]: the Ki under setting [2] was determined as 5.4 nM.

Turning to `Cc1nc2c(c(CO)nn2C(C)c2ccc(C(F)(F)F)cc2)c(=O)[nH]1` (single isomer, unassigned) [Example 27, (S)- or (R)-3-(Hydroxymethyl)-6-methyl-1-{1-[4-(trifluoromethyl)phenyl]ethyl]-1,5-dihydro-4H-pyrazolo[3,4-d]pyrimidin-4-one], the Ki came out at 1.4 nM under setting [2] and 3.4 nM under setting [1].

For the molecule `CCc1nc2c(c(C)nn2C(C)c2ccc(C(F)(F)F)cc2)c(=O)[nH]1` (stereo not drawn) [Example 38, 6-Ethyl-3-methyl-1-{1-[4-(trifluoromethyl)phenyl]ethyl}-1,5-dihydro-4H-pyrazolo[3,4-d]pyrimidin-4-one], the Ki under setting [2] stood at 28 nM.

Turning to `Cc1nn(C(C)c2ccc(C(F)(F)F)cc2)c2nc(C3CCC3)[nH]c(=O)c12` (stereo not drawn) [Example 39, 6-Cyclobutyl-3-methyl-1-{1-[4-(trifluoromethyl)phenyl]ethyl}-1,5-dihydro-4H-pyrazolo[3,4-d]pyrimidin-4-one], the Ki under setting [2] is 84 nM.

Consider `Cc1nc2c(c(CO)nn2C(C)c2ccc(OC(F)(F)F)c(F)c2)c(=O)[nH]1` (single isomer, unassigned) [Example 10, (R)- or (S)-1-(1-(3-Fluoro-4-(trifluoromethoxy)phenyl)ethyl)-3-(hydroxymethyl)-6-methyl-1H-pyrazolo[3,4-d]pyrimidin-4(5H)-one], for which the Ki under setting [1] turned out to be 50 nM.

Regarding `Cc1nc(-c2nc3c(c(C)nn3C(C)c3ccc(C(F)(F)F)cc3)c(=O)[nH]2)c(C)o1` (stereo not drawn) [Example 54, 6-(2,5-Dimethyl-1,3-oxazol-4-yl)-3-methyl-1-{1-[4-(trifluoromethyl)phenyl]ethyl}-1,5-dihydro-4H-pyrazolo[3,4-d]pyrimidin-4-one], the Ki under setting [2] was 12 nM.

As for `Cc1nc2c(c(CO)nn2Cc2ccc(C(F)(F)F)cc2)c(=O)[nH]1` [Example 8, 3-(Hydroxymethyl)-6-methyl-1-[4-(trifluoromethyl)benzyl]-1,5-dihydro-4H-pyrazolo[3,4-d]pyrimidin-4-one], the Ki runs as follows: under setting [2], 100 nM; under setting [1], 105 nM.

For `Cc1nc2c(c(CF)nn2C(C)c2ccc(C(C)(C)C)cc2)c(=O)[nH]1` (single isomer, unassigned) [Example 214, (R)- or (S)-1-(1-(4-tert-Butylphenyl)ethyl)-3-(fluoromethyl)-6-methyl-1H-pyrazolo[3,4-d]pyrimidin-4(5H)-one], the Ki under setting [1] amounted to 307 nM.

For `Cc1nc2c(c(CO)nn2[C@@H](c2ccc(C(C)(C)C)cc2)C(C)C)c(=O)[nH]1` [Example 160, (R)-1-(1-(4-tert-Butylphenyl)-2-methylpropyl)-3-(hydroxymethyl)-6-methyl-1H-pyrazolo[3,4-d]pyrimidin-4(5H)-one], the Ki under setting [1] worked out at 0.36 nM.

In the case of `Cc1nc2c(c(C(F)F)nn2C(C)c2ccc(C(F)(F)F)cc2)c(=O)[nH]1` (stereo not drawn) [Example 166, 3-(Difluoromethyl)-6-methyl-1-{1-[4-(trifluoromethyl)phenyl]ethyl}-1,5-dihydro-4H-pyrazolo[3,4-d]pyrimidin-4-one], the Ki is, setting by setting: under setting [2], about 5.9 nM; under setting [1], 9.5 nM.

On to `CCC(CCCc1ccccc1)n1nc(C)c2c(=O)[nH]c(C)nc21` (stereo not drawn) [Example 338, 1-(1-ethyl-4-phenylbutyl)-3,6-dimethyl-1,5-dihydro-4H-pyrazolo[3,4-d]pyrimidin-4-one], for which, under setting [2], the Ki was found to be 73 nM.

The record behind these values is patent US10160762B2, “6-alkyl dihydropyrazolopyrimidinone compounds as PDE2 inhibitors” (Merck Sharp & Dohme Corp., priority 2015, dated 2018).
